Data on 22 compounds can be found in PMC12121626, “Synthesis, characterization and biological activity of methotrexate-derived salts in lung cancer cells” (RSC Medicinal Chemistry, 2025).

For one data set, the system named is A549. Nature of the data set: Antiproliferative activity, Cell Titer 96 Aqueous One cell proliferation assay, A549. The conditions noted are these: for IC50: A549, 48 h of incubation; for SI (A549): selectivity index, IC50 fibroblasts/IC50 A549. The class given is cell-based, human. The protocol: (§1) Primary dermal neonatal fibroblasts (PCS-201-010) and lung adenocarcinoma cell lines (A549 and H1975) were acquired from ATCC (Manassas, VA, USA). […] All experiments were conducted at 37 °C, 5% (v/v) CO2, and 99% humidity in the dark. For simplicity, the supplemented media will be referred from now on as DMEM. NSCLC cell lines used in this work represent two different cancer models with different driver mutations[27] (Table 1). […] Doxorubicin (1.5 μM) was used as a positive control and 0.1% (v/v) DMSO was used as a vector control in all biological replicates. After 48 h of incubation, cell viability was measured using the Cell Titer 96® Aqueous One solution cell proliferation assay (Promega, Madison, WI, USA) according to the manufacturer's instructions and procedures described previously.[26,28] The absorbance of the formazan produced was quantified with a Tecan microplate reader (Infinite M200 (Tecan, Mannedorf, Switzerland)) and analysis of the dose–response curves to determine the relative IC50 was performed with GraphPad Prism 8 software (GraphPad Software, La Jolla, CA, USA). The selectivity index (IC50 fibroblasts/IC50 lung cancer cell line) was used as a measurement of the specificity of MTX salts for lung cancer cells.

Data set [1] is described as follows: Solubility in water, visually determined. The procedure: To study the solubility and stability of the MTX salts, two different assays were performed. To measure the solubility, 1 μL of water was added dropwise to 1 mg of MTX salt and the solubility was visually determined.
The subject of data set [2] is normal primary human dermal fibroblast. The data set is described as follows: Cytotoxic effect in normal cells, Cell Titer 96 Aqueous One cell proliferation assay, fibroblasts. Type of data set: cell-based. The conditions noted are these: 48 h of incubation. The protocol: as §1
Another data set deals with H1975. Nature of the data set: Antiproliferative activity, Cell Titer 96 Aqueous One cell proliferation assay, H1975. The class given is cell-based, human. The conditions noted are these: for IC50: H1975, 48 h of incubation; for SI (H1975): selectivity index, IC50 fibroblasts/IC50 H1975. The protocol:
as §1

The subject of a further data set is A549 cells. The data set is described as follows: Evaluation of apoptosis, annexin V/PI double staining, flow cytometry. Type of data set: cell-based, human. The conditions noted are these: A549, 48 h of exposure to IC50 (DOX 1.5 μM). The protocol: A549 cells were seeded on 6-well plates at a density of 2 × 10^5 cells per well and incubated for 48 h with the IC50 of salts ([C12mim]2[MTX], [C10mim]2[MTX], and [C10-3-picoline]2[MTX]) previously determined. Doxorubicin (1.5 μM) was used as a positive control and 0.1% (v/v) DMSO as a vector control. Cells were then detached from the wells and double stained using dead cell apoptosis annexin V (Thermo Fisher Scientific) according to the manufacturer's instructions. The percentage of live cells (unstained), cells in initial apoptosis (stained with annexin V-Alexa Fluor 488), cells in late apoptosis (double stained with annexin V-Alexa Fluor 488 and propidium iodide), or cells in necrosis (stained with propidium iodide) were quantified using an Attune acoustic focusing flow cytometer and the respective software (Thermo Fisher Scientific).
Cellular apoptosis is a process that leads to cell death. Using annexin V and propidium iodide (PI), cells could be divided into live cells, early apoptotic cells, late apoptotic cells, or necrotic cells, based on the differences in plasma membrane of these different stages. PI only enters cells with a permeabilized and/or compromised membrane (late apoptotic and necrotic cells, respectively), while annexin V-FITC binds to phosphatidylserine that translocates from the inner side of the plasma membrane to the outer side, staining cells in initial/late apoptosis.[31]
(In general: Flow cytometry measures light scatter and fluorescence of single cells or particles in a stream.)

On the set-up of data set [3]: method as in PMID 23292116. The settings on record: low solubility and low permeability; cited from earlier work.
Details of data set [4]: method as in doi:10.1016/j.trac.2017.09.009. The settings on record: cited from earlier work.
The nature of data set [5]: UV-vis spectroscopy stability assay in DMEM biological medium. The class given is physicochemical. The settings on record: 48 h period of the biological assays.

Converted amounts (≈) assume the structure as drawn. Read-outs that look alike come from different tables or passages of the source. Bounds are passed on as bounds.

As a reminder, the IC50 is the point on the concentration scale where inhibition reaches its midpoint. Consider `CN(Cc1cnc2nc(N)nc(N)c2n1)c1ccc(C(=O)NC(CCC(=O)[O-])C(=O)[O-])cc1.Cn1cc[n+](CCCCCCCCCCCCn2cc[n+](C)c2)c1` (stereo not drawn) [[MIMC12MIM][MTX]], for which, in the data set with A549, the IC50 turned out to be 12.4 ± 1.09 µM.
Broadly, the Solubility is how much of the substance goes into solution per volume. Lower therefore signals a poorly soluble substance. For the compound `CCCCCCCCCC[n+]1cccc(C)c1.CCCCCCCCCC[n+]1cccc(C)c1.CN(Cc1cnc2nc(N)nc(N)c2n1)c1ccc(C(=O)N[C@@H](CCC(=O)[O-])C(=O)[O-])cc1` [[C10-3-picoline]2[MTX]], the “Solubility” value in data set [1] (in water at room temperature) was 138.9 mg/mL. The compound further came in with a concentration for half-maximal inhibition (IC50) in data set [2] of 10.6 ± 1.03 µM. In the data set on H1975, the IC50 is 29.1 ± 1.46 µM and the “SI (H1975)” value is reported as 0.4. In the data set on A549 cells, the Early apoptosis is listed as 14.9 ± 6.5%, the Late apoptosis amounted to 9.4 ± 5.6%, the Live cells is listed as 75.3 ± 3.0% and the Necrosis amounted to 0.02 ± 0.02%. Moreover, in the data set with A549, the half-inhibitory concentration (IC50) amounted to 0.94 ± 0.03 µM and the “SI (A549)” value amounted to 11.3. In addition, in the data set on A549 (A549, compared to [Na]2[MTX]), the “IC50 in the cancer cell line relative to [Na]2[MTX]” value is reported as 4.06 fold.
`CCCCCCCCn1cc[n+](C)c1.CCCCCCCCn1cc[n+](C)c1.CN(Cc1cnc2nc(N)nc(N)c2n1)c1ccc(C(=O)NC(CCC(=O)[O-])C(=O)[O-])cc1` (stereo not drawn) [[C8mim]2[MTX]] showed an IC50 with A549 of over 50 µM.
Take `CCCCCCCCCCCCn1cc[n+](C)c1.[Br-]` [[C12mim][Br], reference compound]: the IC50 was determined as 8.3 ± 0.92 µM in data set [2], 10.2 ± 1.01 µM in the data set with H1975 and 0.6 ± 0.21 µM in the data set on A549. For the same compound, the “SI (H1975)” value in the data set on H1975 came out at 0.8. Also, the “SI (A549)” value in the data set with A549 is recorded as 13.83.
`COc1cccc2c1C(=O)c1c(O)c3c(c(O)c1C2=O)C[C@@](O)(C(=O)CO)C[C@@H]3O[C@H]1C[C@H](N)[C@H](O)[C@H](C)O1` [DOX, Doxorubicin, reference compound]: in the data set with A549 cells, the Early apoptosis was 9.3 ± 7.1%, the Late apoptosis is 65.25 ± 30.4%, the Live cells worked out at 1.7 ± 1.8% and the Necrosis is on record as 23.7 ± 26.0%.
`CCn1cc[n+](C)c1` [[C2MIM][Br], reference compound] had an IC50 in the data set with A549 of over 50 µM.
Consider `CN(Cc1cnc2nc(N)nc(N)c2n1)c1ccc(C(=O)N[C@@H](CCC(=O)O)C(=O)O)cc1` [MTX, Methotrexate], for which, in data set [1], the Solubility amounted to 0.01 mg/mL (≈ 22 µM). Moreover, the “Class in the biopharmaceutical classification system” value in data set [3] was “class IV”. For the same compound, in data set [4], the “pKa (first acidic proton, carboxylic acid)” value is reported as 2.9 and the “pKa (second acidic proton, carboxylic acid)” value was 4.6. The “Stability in DMEM biological medium” value in data set [5] is “stability was retained”. In the data set with A549 (Homo sapiens), this compound had an IC50 of over 50 µM.
Turning to `C[N+](C)(C)CCO.[Cl-]` [[Choline][Cl], reference compound], in the data set on A549, the IC50 is over 50 µM.
In the case of `CCCCCCCCCCn1cc[n+](C)c1.CCCCCCCCCCn1cc[n+](C)c1.CN(Cc1cnc2nc(N)nc(N)c2n1)c1ccc(C(=O)N[C@@H](CCC(=O)[O-])C(=O)[O-])cc1` [[C10mim]2[MTX]], the “Solubility” value in data set [1] (in water at room temperature) was 312.5 mg/mL. In data set [2], this compound gave a 50% inhibitory concentration (IC50) of 7.61 ± 0.88 µM. Also, in the data set on H1975, the half-maximal inhibitory concentration (IC50) was found to be 14.9 ± 1.17 µM and the “SI (H1975)” value is 0.5. In addition, in the data set with A549 cells, the Early apoptosis is on record as 14.9 ± 5.0%, the Late apoptosis was found to be 10.7 ± 8.1%, the Live cells is listed as 73.2 ± 5.0% and the Necrosis is 1.1 ± 1.8%. In addition, in the data set on A549, the IC50 stood at 1.71 ± 0.23 µM and the “SI (A549)” value came to 4.5.
On to `CN(Cc1cnc2nc(N)nc(N)c2n1)c1ccc(C(=O)NC(CCC(=O)[O-])C(=O)[O-])cc1.C[n+]1ccn(CCO)c1.C[n+]1ccn(CCO)c1` (stereo not drawn) [[C2OHmim]2[MTX]], for which the “Solubility” value in data set [1] (in water at room temperature) was 476.2 mg/mL. Also, in the data set on A549, the IC50 is over 50 µM.
Compound `Cc1ccc[n+](CCO)c1` [[C2OH 3-picoline][Br], reference compound] yielded a 50% inhibitory concentration (IC50) with A549 of over 50 µM.
Consider `CCCCCCCCCCn1cc[n+](C)c1.[Br-]` [[C10mim][Br], reference compound], for which the IC50 in data set [2] is over 50 µM; in the data set with H1975, 19.2 ± 1.28 µM; with A549, 1.1 ± 0.02 µM. Further, in the data set with A549, the “SI (A549)” value is given as 45.5.
Turning to `CCn1cc[n+](C)c1.CCn1cc[n+](C)c1.CN(Cc1cnc2nc(N)nc(N)c2n1)c1ccc(C(=O)NC(CCC(=O)[O-])C(=O)[O-])cc1` (stereo not drawn) [[C2MIM]2[MTX]], in data set [1] (in water at room temperature), the “Solubility” value stood at 500.0 mg/mL. The same compound showed an IC50 with A549 of over 50 µM.
`CCCCCCCCCCCC[N+](C)(C)CCO.CCCCCCCCCCCC[N+](C)(C)CCO.CN(Cc1cnc2nc(N)nc(N)c2n1)c1ccc(C(=O)NC(CCC(=O)[O-])C(=O)[O-])cc1` (stereo not drawn) [[N12,1,1,2OH]2[MTX]]: the IC50 with A549 was determined as 8.55 ± 0.93 µM.
Still for that read-out and setting: then `CCCCCCCCCC[N+](C)(C)CCO.CCCCCCCCCC[N+](C)(C)CCO.CN(Cc1cnc2nc(N)nc(N)c2n1)c1ccc(C(=O)N[C@@H](CCC(=O)[O-])C(=O)[O-])cc1` [[N10,1,1,2OH]2[MTX]], with 19.2 ± 1.28 µM; and `C[n+]1ccn(CCO)c1` [[C2OHmim][Br], reference compound], with over 50 µM.
Take `CCCCCCCCCCCCn1cc[n+](C)c1.CCCCCCCCCCCCn1cc[n+](C)c1.CN(Cc1cnc2nc(N)nc(N)c2n1)c1ccc(C(=O)N[C@@H](CCC(=O)[O-])C(=O)[O-])cc1` [[C12mim]2[MTX]]: the “Solubility” value in data set [1] (in water at room temperature) is 238.1 mg/mL. Besides, in the data set on H1975, the IC50 stood at 2.72 ± 0.43 µM and the “SI (H1975)” value stood at 0.6. Moreover, in the data set with A549 cells, the Early apoptosis is recorded as 16.7 ± 7.3%, the Late apoptosis is 10.2 ± 8.3%, the Live cells was 72.9 ± 4.1% and the Necrosis was 0.1 ± 0.2%. Besides, in the data set with A549, the IC50 amounted to 0.55 ± 0.25 µM and the “SI (A549)” value turned out to be 2.9.
The compound `CCCCCCn1cc[n+](C)c1.CCCCCCn1cc[n+](C)c1.CN(Cc1cnc2nc(N)nc(N)c2n1)c1ccc(C(=O)NC(CCC(=O)[O-])C(=O)[O-])cc1` (stereo not drawn) [[C6mim]2[MTX]] yielded an IC50 with A549 of over 50 µM.
On to `CN(Cc1cnc2nc(N)nc(N)c2n1)c1ccc(C(=O)N[C@@H](CCC(=O)[O-])C(=O)[O-])cc1.C[N+](C)(C)CCO.C[N+](C)(C)CCO` [[Choline]2[MTX]], for which, in data set [1], the “Increase in solubility in water” value is on record as 10 fold and the “Solubility” value was 1087.0 mg/mL. Also, the IC50 with A549 was over 50 µM.
`CCCCCCCCCC[n+]1cccc(C)c1.[Br-]` [[C10-3-picoline][Br], reference compound]: the concentration for half-maximal inhibition (IC50) in data set [2] is over 50 µM; in the data set with H1975 it was 29.3 ± 1.47 µM; in the data set with A549, 1.03 ± 0.01 µM. Further, the “SI (A549)” value in the data set with A549 is reported as 48.5.
With `CN(Cc1cnc2nc(N)nc(N)c2n1)c1ccc(C(=O)N[C@@H](CCC(=O)[O-])C(=O)[O-])cc1.[Na+].[Na+]` [[Na]2[MTX]] [reference compound], in data set [1] (in water at room temperature), the “Solubility” value was 99.0 mg/mL. The half-maximal inhibitory concentration (IC50) in data set [2] is over 50 µM; in the data set on H1975, over 50 µM; in the data set on A549 it was 3.82 ± 0.58 µM.
As for `CN(Cc1cnc2nc(N)nc(N)c2n1)c1ccc(C(=O)N[C@@H](CCC(=O)[O-])C(=O)[O-])cc1.Cc1ccc[n+](CCO)c1.Cc1ccc[n+](CCO)c1` [[C2OH-3-picoline]2[MTX]], the “Solubility” value in data set [1] (in water at room temperature) is 192.3 mg/mL. Besides, the IC50 with A549 was over 50 µM.
